Assay results from the supplement of paper PMC10307832.

Key:
Assay in all cases: relative viability (nuclei count vs DMSO), 5 days (fraction); higher = more cells survive
[1] = compound: CCC1=CN=CN=C1N2CCN(CC2)CC3=NC4=C(N3)C=C(C=C4)C(F)(F)F + Cc1nc(NC(=O)N2CCC[C@H]2C(N)=O)sc1-c1ccnc(C(C)(C)C(F)(F)F)c1 [Alpelisib] (partner 2 µM)
Outline: (§1)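 Medians of duplicate plates are given as relative viability. That measure is the nuclei count in treated wells divided by the count in vehicle wells. Counts were taken on 4× images of lung cancer cell lines in 1536-well plates, 5 days after pin-tool dosing the day after seeding with one drug alone or a fixed anchor-drug dose plus five library-drug doses (not always all listed) in √10 steps.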

[2] = compound: CCn1c(-c2nonc2N)nc2cnc(Oc3cccc(NC(=O)c4ccc(OCCN5CCOCC5)cc4)c3)cc21 + Nc1nc2[nH]cc(CCc3ccc(C(=O)N[C@@H](CCC(=O)O)C(=O)O)cc3)c2c(=O)[nH]1 [Pemetrexed] (partner 0.2 µM)
Outline: as §1

[3] = compound: CCn1c(-c2nonc2N)nc2cnc(Oc3cccc(NC(=O)c4ccc(OCCN5CCOCC5)cc4)c3)cc21 + COc1cccc2cc(-c3nc([C@H]4CC[C@H](C(=O)O)CC4)n4ncnc(N)c34)[nH]c12 [OSI-027] (partner 0.5 µM)
Outline: as §1

[4] = compound: CCC1=CN=CN=C1N2CCN(CC2)CC3=NC4=C(N3)C=C(C=C4)C(F)(F)F + Cc1nc(Nc2ncc(C(=O)Nc3c(C)cccc3Cl)s2)cc(N2CCN(CCO)CC2)n1 [Dasatinib] (partner 0.075 µM)
Outline: as §1

Row | Cell Line | relative viability ([1]; first compound 0.04 µM) | relative viability ([1]; first compound 0.1265 µM) | relative viability ([1]; first compound 0.4 µM) | relative viability ([1]; first compound 4 µM) | relative viability ([2]; first compound 0.04 µM) | relative viability ([2]; first compound 0.1265 µM) | relative viability ([2]; first compound 0.4 µM) | relative viability ([2]; first compound 1.265 µM) | relative viability ([2]; first compound 4 µM) | relative viability ([3]; first compound 0.04 µM) | relative viability ([3]; first compound 0.1265 µM) | relative viability ([3]; first compound 0.4 µM) | relative viability ([3]; first compound 1.265 µM) | relative viability ([3]; first compound 4 µM) | relative viability ([4]; first compound 0.04 µM) | relative viability ([4]; first compound 0.1265 µM) | relative viability ([4]; first compound 0.4 µM) | relative viability ([4]; first compound 4 µM) | relative viability ([1]; first compound 1.265 µM) | relative viability ([4]; first compound 1.265 µM)
1 | NCI-H2405 | 0.858 | 0.768 | 0.651 | 0.941 | 1.01 | 0.395 | 0.315 | 0.247 | 0.284 | 0.763 | 0.582 | 0.185 | 0.326 | 0.354 | 0.158 | 0.189 | 0.207 | 0.216 |  | 
2 | HCC-44 | 0.789 | 0.746 | 0.815 | 0.713 | 0.62 | 0.652 | 0.547 | 0.678 | 0.425 | 0.533 | 0.423 | 0.175 | 0.111 | 0.225 |  |  |  |  | 0.743 | 
3 | HCC-78 | 0.188 | 0.348 | 0.333 | 0.279 | 0.959 | 0.847 |  | 0.929 | 0.951 | 0.43 | 0.429 |  | 0.574 | 0.625 | 0.327 | 0.416 | 0.374 | 0.363 | 0.4 | 0.316
4 | COR-L23 | 0.899 | 0.721 | 0.886 | 0.783 | 0.211 | 0.19 | 0.194 | 0.164 | 0.123 | 0.686 | 0.54 | 0.326 | 0.207 | 0.144 | 0.536 | 0.477 | 0.502 | 0.484 | 0.702 | 0.481
5 | NCI-H1993 | 0.593 | 0.623 | 0.743 | 0.727 | 0.649 | 0.616 | 0.526 | 0.579 | 0.526 | 0.612 | 0.624 | 0.573 | 0.569 | 0.539 | 0.608 | 0.553 | 0.545 | 0.581 | 0.77 | 0.521
6 | NCI-H3122 | 0.954 | 0.77 | 0.856 | 0.872 | 0.217 | 0.214 | 0.183 | 0.17 | 0.202 | 1.4 | 0.961 | 0.729 | 0.326 | 0.737 | 0.848 | 0.781 | 0.804 | 1.02 | 1.01 | 0.709
7 | NCI-H2228 | 0.726 | 0.931 | 0.805 | 0.675 | 0.328 | 0.289 | 0.302 | 0.285 | 0.333 | 0.662 | 0.637 | 0.386 | 0.545 | 0.405 | 0.515 | 0.44 | 0.409 | 0.712 | 0.651 | 0.416
8 | NCI-H1944 | 0.993 | 0.827 | 0.778 | 0.802 | 0.654 | 0.632 | 0.577 | 0.367 | 0.301 | 0.413 | 0.397 | 0.236 | 0.214 | 0.236 | 0.228 | 0.217 | 0.211 | 0.22 |  | 0.208
9 | NCI-H2342 |  |  |  |  | 0.75 | 0.782 | 0.736 | 0.474 | 0.76 | 0.716 | 0.696 | 0.535 | 0.487 | 0.577 | 0.317 | 0.316 | 0.327 | 0.338 |  | 0.32
10 | NCI-H358 | 0.892 | 0.836 | 0.833 | 0.747 | 0.176 | 0.169 | 0.19 | 0.178 | 0.151 | 0.84 | 0.73 | 0.579 | 0.816 | 0.523 | 0.234 | 0.147 | 0.179 | 0.172 | 0.853 | 0.14
11 | NCI-H1734 | 0.686 | 0.754 | 0.795 | 0.676 | 0.397 | 0.401 | 0.307 | 0.281 | 0.29 | 0.647 | 0.591 | 0.303 | 0.335 | 0.319 | 0.403 | 0.532 | 0.522 | 0.441 |  | 0.476
12 | A-427 | 1.08 | 1.08 | 0.99 | 0.791 | 0.876 | 0.708 | 0.529 | 0.228 | 0.318 | 0.585 | 0.545 | 0.328 | 0.411 | 0.352 | 0.563 | 0.753 | 0.659 | 0.655 | 0.986 | 0.614
13 | ABC-1 | 0.987 | 1 | 1.08 | 0.971 |  |  |  |  |  | 0.492 | 0.751 | 0.272 | 0.418 | 0.3 | 0.66 | 0.507 | 0.614 | 0.449 | 0.942 | 0.495
14 | NCI-H522 |  |  |  |  | 1.06 | 0.763 | 0.917 | 0.703 | 0.595 | 0.742 | 0.818 | 0.642 | 0.55 | 0.587 | 0.849 | 0.819 | 0.88 | 0.923 |  | 0.866
15 | SW 900 |  |  |  |  | 0.526 | 0.49 | 0.439 | 0.442 | 0.444 | 0.553 | 0.557 | 0.421 | 0.559 | 0.578 | 0.601 | 0.544 | 0.571 | 0.448 |  | 0.603
16 | EBC-1 | 0.962 | 0.769 | 0.796 | 1.03 |  |  |  |  |  |  |  |  |  |  |  |  |  |  | 0.697 | 
17 | NCI-H1650 |  |  |  |  | 0.343 | 0.326 | 0.389 | 0.334 | 0.343 | 0.666 | 0.678 | 0.551 | 0.535 | 0.656 | 0.346 | 0.299 | 0.333 | 0.309 |  | 
18 | IA-LM | 0.805 | 0.752 | 0.668 | 0.748 |  |  |  |  |  |  |  |  |  |  |  |  |  |  | 0.766 | 
19 | NCI-H1703 | 0.462 | 0.401 | 0.358 | 0.535 |  |  |  |  |  |  |  |  |  |  |  |  |  |  | 0.25 | 
20 | NCI-H727 | 0.684 | 0.483 | 0.463 | 0.544 |  |  |  |  |  | 1.01 | 0.924 | 0.441 | 0.612 | 0.818 | 0.407 | 0.38 | 0.364 | 0.314 |  | 
